Read-outs that look alike come from different tables or passages of the source. Bounds are passed on as bounds.

In experiment [1] the target is KRAS G12C and PI3Ka (Ras-binding domain) interaction (Homo sapiens (Human), UniProt P01116, C118S/C51S/C80L/G12C). Briefly: Inhibition of KRAS G12C and PI3Ka binding (AlphaScreen). Conditions: GMPPNP-loaded KRAS G12C, 2 hours incubation with compound; read-out: PI3Ka RBD IC50. As to the method: Compounds were diluted in 100% DMSO and each compound concentration was spotted at 200 nl/well onto low volume, white 384 well plates. […] The KRAS GT2C was diluted in 25 mM Hepes, pH 7.4, 150 mM NaCl, 5 mMv MgCl2, 0.0100 TritonX-100 and 10 μM GMPPNP and added at 10 ul/well to compound-spotted plates resulting in a […] concentration of 2%. Plates were incubated for 2 hours. A mixture of RBD and the AlphaScreen streptavidin donor and nickel chelate acceptor beads diluted in 25 mMv Hepes, pH 7.4, 150 mMv NaCl, 5 mM MgCl2, 0.0100 TritonX-100 and 2% DMSO was then added at 10 ul/well and incubated for 60-90 minutes before the samples were read for emission at 570 nm after excitation of the donor beads at 680 nm. All incubations were performed at room temperature. […] Final assay conditions were 1.5 nM KRAS GT2C, 100 nM RBD, 1.25 ug/ml of AlphaScreen donor beads and 10 μg/ml AlphaLISA acceptor beads. IC50S were determined using nonlinear regression fit of [inhibitor]vs. response (4 parameters). […]
KRAS G12C and PI3Ka (Ras-binding domain) interaction, sequence (P01116 other isoform, or with tags, fused parts or gaps G12C/C51S/C80L/C118S): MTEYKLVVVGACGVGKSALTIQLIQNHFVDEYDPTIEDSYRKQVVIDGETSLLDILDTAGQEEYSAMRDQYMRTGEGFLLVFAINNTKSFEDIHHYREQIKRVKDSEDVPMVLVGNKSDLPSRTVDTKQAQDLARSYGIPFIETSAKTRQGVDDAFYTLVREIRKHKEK

Experiment [2] has as its target KRAS G12C and cRAF (Ras-binding domain) interaction (Homo sapiens (Human), UniProt P01116, C118S/C51S/C80L/G12C). Briefly: Inhibition of KRAS G12C and cRAF binding (AlphaScreen). The method in brief: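 IC50 values come from 4-parameter nonlinear regression of AlphaScreen signal (680 nm excitation, 570 nm emission). Compound plates sat 19-20 h at room temperature before RBD and donor/acceptor beads were added in Hepes pH 7.4 buffer with 150 mM NaCl, 5 mM MgCl2, 2% DMSO for 60-90 min; biotin-AviTag-GST replaced RBD to flag assay-technology interferers.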

The mark [3] stands for this setting: GMPPNP-loaded KRAS G12C, 19-20 hours incubation with compound, read-out: IC50 (Inhibition of KRAS G12C and cRAF Binding).
The mark [4] stands for this setting: additional exemplary compounds, KRAS G12C and cRAF binding, read-out: RAF1 RBD IC50.

KRAS G12C and cRAF (Ras-binding domain) interaction, sequence (P01116 other isoform, or with tags, fused parts or gaps G12C/C51S/C80L/C118S): as above

Broadly, the IC50 is the concentration that inhibits the measured activity by half. As to `CN1C[C@H](O)C[C@H]1C#CC(=O)N1CC[C@@H](N(C)c2nc(OC[C@@]34CCCN3C[C@H](F)C4)nc3c(F)c(-c4cccc5cccc(Cl)c45)ncc23)C1` [Example 247, 1-((R)-3-((7-(8-chloronaphthalen-1-yl)-8-fluoro-2-(((2R,7aS)-2-fluorohexahydro-1H-pyrrolizin-7a-yl)methoxy)pyrido[4,3-d]pyrimidin-4-yl)(methyl)amino)pyrrolidin-1-yl)-3-((2S,4R)-4-hydroxy-1-methylpyrrolidin-2-yl)prop-2-yn-1-one], the IC50 was 10 to 100 nM in experiment [1] and less than 10 nM in experiment [2] (setting [3]).

For the compound `CN(CC1CN(C(=O)/C=C/c2nc([C@H]3C[C@@H]3F)no2)C1)c1nc(OC[C@@]23CCCN2C[C@H](F)C3)nc2c(F)c(-c3cccc4cccc(Cl)c34)ncc12` [Example 139, (E)-1-(3-(((7-(8-chloronaphthalen-1-yl)-8-fluoro-2-(((2R,7aS)-2-fluorotetrahydro-1H-pyrrolizin-7a(5H)-yl)methoxy)pyrido[4,3-d]pyrimidin-4-yl)(methyl)amino)methyl)azetidin-1-yl)-3-(3-((1R,2S)-2-fluorocyclopropyl)-1,2,4-oxadiazol-5-yl)prop-2-en-1-one], the IC50 in experiment [1] and in experiment [2] (setting [3]) was 10 to 100 nM in each case.

With `C=CC(=O)N1CC[C@@H](N(C)c2nc(OCC34CCCN3CCC4)nc3c(F)c(-c4cccc5cccc(F)c45)ncc23)C1` [Example 259, (R)-1-(3-((8-fluoro-7-(8-fluoronaphthalen-1-yl)-2-((tetrahydro-1H-pyrrolizin-7a(5H)-yl)methoxy)pyrido[4,3-d]pyrimidin-4-yl)(methyl)amino)pyrrolidin-1-yl)prop-2-en-1-one], the IC50 in experiment [1] lay within 10 to 100 nM; in experiment [2] (setting [3]), 100 to 500 nM.

Regarding `C=CC(=O)N1CC[C@@H](N(C)c2nc(OC[C@@]34CCCN3C[C@H](F)C4)nc3c(F)c(-c4cccc5cccc(F)c45)ncc23)C1` [Example 258, 1-((R)-3-((8-fluoro-7-(8-fluoronaphthalen-1-yl)-2-(((2R,7aS)-2-fluorotetrahydro-1H-pyrrolizin-7a(5H)-yl)methoxy)pyrido[4,3-d]pyrimidin-4-yl)(methyl)amino)pyrrolidin-1-yl)prop-2-en-1-one], the IC50 in experiment [1] and in experiment [2] (setting [3]) was 10 to 100 nM throughout.

Regarding `CN1C[C@@H](O)C[C@@H]1C#CC(=O)N1CC[C@@H](N(C)c2nc(OC[C@@]34CCCN3C[C@H](F)C4)nc3c(F)c(-c4cccc5cccc(Cl)c45)ncc23)C1` [Example 248, 1-((R)-3-((7-(8-chloronaphthalen-1-yl)-8-fluoro-2-(((2R,7aS)-2-fluorohexahydro-1H-pyrrolizin-7a-yl)methoxy)pyrido[4,3-d]pyrimidin-4-yl)(methyl)amino)pyrrolidin-1-yl)-3-((2R,4S)-4-hydroxy-1-methylpyrrolidin-2-yl)prop-2-yn-1-one], the IC50 in experiment [1] and in experiment [2] (setting [3]) was 10 to 100 nM each time.

For the compound `CN(c1nc(OCC23CCCN2CCC3)nc2c1CCN(c1cccc3cccc(Cl)c13)C2)[C@@H]1CCN(C(=O)/C=C/c2nc(C3CC3)no2)C1` [Example 161, (R,E)-1-(3-((7-(8-chloronaphthalen-1-yl)-2-((hexahydro-1H-pyrrolizin-7a-yl)methoxy)-5,6,7,8-tetrahydropyrido[3,4-d]pyrimidin-4-yl)(methyl)amino)pyrrolidin-1-yl)-3-(3-cyclopropyl-1,2,4-oxadiazol-5-yl)prop-2-en-1-one], the IC50 in experiment [1] and in experiment [2] (setting [3]) was 10 to 100 nM in each case.

On to `CN(c1nc(OC[C@@]23CCCN2C[C@H](F)C3)nc2c(F)c(-c3cccc4cccc(Cl)c34)ncc12)[C@@H]1CCN(C(=O)/C=C/c2nc([C@H]3C[C@@H]3F)no2)C1` [Example 140, (E)-1-((R)-3-((7-(8-chloronaphthalen-1-yl)-8-fluoro-2-(((2R,7aS)-2-fluorohexahydro-1H-pyrrolizin-7a-yl)methoxy)pyrido[4,3-d]pyrimidin-4-yl)(methyl)amino)pyrrolidin-1-yl)-3-(3-((1R,2S)-2-fluorocyclopropyl)-1,2,4-oxadiazol-5-yl)prop-2-en-1-one], for which the IC50 in experiment [1] and in experiment [2] (setting [3]) was 10 to 100 nM each time.

For `CN(CC1CN(C(=O)/C=C/c2nc(C3CC3)no2)C1)c1nc(OCC23CCCN2CCC3)nc2c(F)c(-c3cccc4cccc(Cl)c34)ncc12` [Example 173, (E)-1-(3-(((7-(8-chloronaphthalen-1-yl)-8-fluoro-2-((tetrahydro-1H-pyrrolizin-7a(5H)-yl)methoxy)pyrido[4,3-d]pyrimidin-4-yl)(methyl)amino)methyl)azetidin-1-yl)-3-(3-cyclopropyl-1,2,4-oxadiazol-5-yl)prop-2-en-1-one], the IC50 in experiment [1] and in experiment [2] (setting [3]) was 10 to 100 nM in each case.

As to `CN(c1nc(OC[C@@]23CCCN2C[C@H](F)C3)nc2c1CCN(c1cccc3cccc(Cl)c13)C2)[C@@H]1CCN(C(=O)/C=C/c2nc([C@H]3C[C@@H]3F)no2)C1` [Example 130, (E)-1-((R)-3-((7-(8-chloronaphthalen-1-yl)-2-(((2R,7aS)-2-fluorohexahydro-1H-pyrrolizin-7a-yl)methoxy)-5,6,7,8-tetrahydropyrido[3,4-d]pyrimidin-4-yl)(methyl)amino)pyrrolidin-1-yl)-3-(3-((1R,2S)-2-fluorocyclopropyl)-1,2,4-oxadiazol-5-yl)prop-2-en-1-one], the IC50 in experiment [1] and in experiment [2] (setting [3]) was 10 to 100 nM in each case.

In the case of `CCc1noc(/C=C/C(=O)N2CC(CN(C)c3nc(OCC45CCCN4CCC5)nc4c3CCN(c3cccc5cccc(Cl)c35)C4)C2)n1` [Example 168, (E)-1-(3-(((7-(8-chloronaphthalen-1-yl)-2-((hexahydro-1H-pyrrolizin-7a-yl)methoxy)-5,6,7,8-tetrahydropyrido[3,4-d]pyrimidin-4-yl)(methyl)amino)methyl)azetidin-1-yl)-3-(3-ethyl-1,2,4-oxadiazol-5-yl)prop-2-en-1-one], the IC50 in experiment [1] and in experiment [2] (setting [3]) was 10 to 100 nM each time.

Regarding `CN(CC1CN(C(=O)/C=C/c2nc(C3CC3)no2)C1)c1nc(OCC23CCCN2CCC3)nc2c1CCN(c1cccc3cccc(Cl)c13)C2` [Example 172, (E)-1-(3-(((7-(8-chloronaphthalen-1-yl)-2-((hexahydro-1H-pyrrolizin-7a-yl)methoxy)-5,6,7,8-tetrahydropyrido[3,4-d]pyrimidin-4-yl)(methyl)amino)methyl)azetidin-1-yl)-3-(3-cyclopropyl-1,2,4-oxadiazol-5-yl)prop-2-en-1-one], the half-maximal inhibitory concentration (IC50) in experiment [1] and in experiment [2] (setting [3]) was 10 to 100 nM each time.

As to `C=CC(=O)N1CC[C@@H](N(C)c2nc(OC[C@@]34CCCN3C[C@H](F)C4)nc3c(F)c(-c4cccc5cc(F)c(F)cc45)ncc23)C1` [Example 266, 1-((R)-3-((7-(6,7-difluoronaphthalen-1-yl)-8-fluoro-2-(((2R,7aS)-2-fluorotetrahydro-1H-pyrrolizin-7a(5H)-yl)methoxy)pyrido[4,3-d]pyrimidin-4-yl)(methyl)amino)pyrrolidin-1-yl)prop-2-en-1-one], the IC50 in experiment [2] (setting [3]) lay within 100 to 500 nM.

With `CN1CCC[C@H]1COc1nc2c(c(N3CC[C@@H]4CN(C#N)C[C@@H]43)n1)CCN(c1cccc3cccc(Cl)c13)C2` [Example 37, (3aR,6aR)-1-(7-(8-chloronaphthalen-1-yl)-2-(((S)-1-methylpyrrolidin-2-yl)methoxy)-5,6,7,8-tetrahydropyrido[3,4-d]pyrimidin-4-yl)hexahydropyrrolo[3,4-b]pyrrole-5(1H)-carbonitrile], in experiment [2] (setting [3]), the IC50 fell in the range of 100 to 500 nM.

As for `Cc1cc(/C=C/C(=O)N2CC[C@@H](N(C)c3nc(OC[C@@]45CCCN4C[C@H](F)C5)nc4c(F)c(-c5cccc6ccc(F)c(Cl)c56)ncc34)C2)nc(C)n1` [Example 272, (E)-1-((R)-3-((7-(8-chloro-7-fluoronaphthalen-1-yl)-8-fluoro-2-(((2R,7aS)-2-fluorotetrahydro-1H-pyrrolizin-7a(5H)-yl)methoxy)pyrido[4,3-d]pyrimidin-4-yl)(methyl)amino)pyrrolidin-1-yl)-3-(2,6-dimethylpyrimidin-4-yl)prop-2-en-1-one], the 50% inhibitory concentration (IC50) in experiment [2] (setting [3]) fell in the range of 10 to 100 nM.

For `Cc1cc(/C=C/C(=O)N2CC[C@@H](N(C)c3nc(OC[C@@]45CCCN4C[C@H](F)C5)nc4c(F)c(-c5cccc6cccc(Cl)c56)ncc34)C2)nc(C)n1` [Example 204, (E)-1-((R)-3-((7-(8-chloronaphthalen-1-yl)-8-fluoro-2-(((2R,7aS)-2-fluorohexahydro-1H-pyrrolizin-7a-yl)methoxy)pyrido[4,3-d]pyrimidin-4-yl)(methyl)amino)pyrrolidin-1-yl)-3-(2,6-dimethylpyrimidin-4-yl)prop-2-en-1-one], the concentration for half-maximal inhibition (IC50) in experiment [2] (setting [3]) was 100 to 500 nM.

In the case of `C=CC(=O)N(C)C[C@H]1CCN1c1nc(OC[C@@]23CCCN2C[C@H](F)C3)nc2c(F)c(-c3cccc4cccc(Cl)c34)ncc12`, the 50% inhibitory concentration (IC50) in experiment [2] (setting [4]) is more than 500 nM.

Take `CCN(C/C=C/S(=O)(=O)CCN(C)c1nc(OCC23CCCN2CCC3)nc2c1CCN(c1cccc3cccc(Cl)c13)C2)CCOC`: in experiment [2] (setting [4]), the IC50 was in the range of 10 to 100 nM.

These data come from patent publication US20250019387A1 (Frontier Medicines Corporation, priority 0001, published 2025).
